US20120245137A1 (Zalicus Pharmaceuticals Ltd., priority 2009, published 2012)

What was measured:
Type in all cases: cell-based
[1] = biological target: human α1H T-type channels (Homo sapiens, UniProt O95180); assay: T-type calcium channel block, whole cell patch clamp, α1H; details: HEK cells stably expressing human α1H; mainly non-inactivated protocol; values above 10,000 nM represented as 10000
Procedure, shortened: (§1)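 Whole-cell voltage clamp on stably transfected HEK 293 lines carrying human α1H or α1G. Two voltage protocols used: non-inactivated pre-pulse for resting block, inactivated for voltage-dependent block; test agents perfused locally in external solution (0.1-0.01% DMSO) following ~10 min rest.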

[2] = biological target: N-type calcium channel subunits (α1B, α2δ, and β3a) (Homo sapiens, UniProt Q00975); assay: Block of Cav2.2 channel, whole cell voltage clamp, manual and PatchXpress; details: Table 5; table follows Assay Example 3 (whole cell voltage clamp / PatchXpress); assay not given
Procedure, shortened: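 Percent block taken as current amplitude ratio with versus without compound, applied in rising doses; IC50 fitted where one cell received multiple doses. Protocol: 50 ms pulses to +20 mV at 0.067 Hz from […] or −90 mV holding; P/n leak subtraction, no junction-potential correction; manual and PatchXpress recordings.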

[3] = biological target: human α1G T-type channels (Homo sapiens, UniProt O43497); assay: T-type calcium channel block, whole cell patch clamp, α1G; details: HEK cells stably expressing human α1G; mainly non-inactivated protocol; values above 10,000 nM represented as 10000
human α1G T-type channels, sequence (O43497 whole entry): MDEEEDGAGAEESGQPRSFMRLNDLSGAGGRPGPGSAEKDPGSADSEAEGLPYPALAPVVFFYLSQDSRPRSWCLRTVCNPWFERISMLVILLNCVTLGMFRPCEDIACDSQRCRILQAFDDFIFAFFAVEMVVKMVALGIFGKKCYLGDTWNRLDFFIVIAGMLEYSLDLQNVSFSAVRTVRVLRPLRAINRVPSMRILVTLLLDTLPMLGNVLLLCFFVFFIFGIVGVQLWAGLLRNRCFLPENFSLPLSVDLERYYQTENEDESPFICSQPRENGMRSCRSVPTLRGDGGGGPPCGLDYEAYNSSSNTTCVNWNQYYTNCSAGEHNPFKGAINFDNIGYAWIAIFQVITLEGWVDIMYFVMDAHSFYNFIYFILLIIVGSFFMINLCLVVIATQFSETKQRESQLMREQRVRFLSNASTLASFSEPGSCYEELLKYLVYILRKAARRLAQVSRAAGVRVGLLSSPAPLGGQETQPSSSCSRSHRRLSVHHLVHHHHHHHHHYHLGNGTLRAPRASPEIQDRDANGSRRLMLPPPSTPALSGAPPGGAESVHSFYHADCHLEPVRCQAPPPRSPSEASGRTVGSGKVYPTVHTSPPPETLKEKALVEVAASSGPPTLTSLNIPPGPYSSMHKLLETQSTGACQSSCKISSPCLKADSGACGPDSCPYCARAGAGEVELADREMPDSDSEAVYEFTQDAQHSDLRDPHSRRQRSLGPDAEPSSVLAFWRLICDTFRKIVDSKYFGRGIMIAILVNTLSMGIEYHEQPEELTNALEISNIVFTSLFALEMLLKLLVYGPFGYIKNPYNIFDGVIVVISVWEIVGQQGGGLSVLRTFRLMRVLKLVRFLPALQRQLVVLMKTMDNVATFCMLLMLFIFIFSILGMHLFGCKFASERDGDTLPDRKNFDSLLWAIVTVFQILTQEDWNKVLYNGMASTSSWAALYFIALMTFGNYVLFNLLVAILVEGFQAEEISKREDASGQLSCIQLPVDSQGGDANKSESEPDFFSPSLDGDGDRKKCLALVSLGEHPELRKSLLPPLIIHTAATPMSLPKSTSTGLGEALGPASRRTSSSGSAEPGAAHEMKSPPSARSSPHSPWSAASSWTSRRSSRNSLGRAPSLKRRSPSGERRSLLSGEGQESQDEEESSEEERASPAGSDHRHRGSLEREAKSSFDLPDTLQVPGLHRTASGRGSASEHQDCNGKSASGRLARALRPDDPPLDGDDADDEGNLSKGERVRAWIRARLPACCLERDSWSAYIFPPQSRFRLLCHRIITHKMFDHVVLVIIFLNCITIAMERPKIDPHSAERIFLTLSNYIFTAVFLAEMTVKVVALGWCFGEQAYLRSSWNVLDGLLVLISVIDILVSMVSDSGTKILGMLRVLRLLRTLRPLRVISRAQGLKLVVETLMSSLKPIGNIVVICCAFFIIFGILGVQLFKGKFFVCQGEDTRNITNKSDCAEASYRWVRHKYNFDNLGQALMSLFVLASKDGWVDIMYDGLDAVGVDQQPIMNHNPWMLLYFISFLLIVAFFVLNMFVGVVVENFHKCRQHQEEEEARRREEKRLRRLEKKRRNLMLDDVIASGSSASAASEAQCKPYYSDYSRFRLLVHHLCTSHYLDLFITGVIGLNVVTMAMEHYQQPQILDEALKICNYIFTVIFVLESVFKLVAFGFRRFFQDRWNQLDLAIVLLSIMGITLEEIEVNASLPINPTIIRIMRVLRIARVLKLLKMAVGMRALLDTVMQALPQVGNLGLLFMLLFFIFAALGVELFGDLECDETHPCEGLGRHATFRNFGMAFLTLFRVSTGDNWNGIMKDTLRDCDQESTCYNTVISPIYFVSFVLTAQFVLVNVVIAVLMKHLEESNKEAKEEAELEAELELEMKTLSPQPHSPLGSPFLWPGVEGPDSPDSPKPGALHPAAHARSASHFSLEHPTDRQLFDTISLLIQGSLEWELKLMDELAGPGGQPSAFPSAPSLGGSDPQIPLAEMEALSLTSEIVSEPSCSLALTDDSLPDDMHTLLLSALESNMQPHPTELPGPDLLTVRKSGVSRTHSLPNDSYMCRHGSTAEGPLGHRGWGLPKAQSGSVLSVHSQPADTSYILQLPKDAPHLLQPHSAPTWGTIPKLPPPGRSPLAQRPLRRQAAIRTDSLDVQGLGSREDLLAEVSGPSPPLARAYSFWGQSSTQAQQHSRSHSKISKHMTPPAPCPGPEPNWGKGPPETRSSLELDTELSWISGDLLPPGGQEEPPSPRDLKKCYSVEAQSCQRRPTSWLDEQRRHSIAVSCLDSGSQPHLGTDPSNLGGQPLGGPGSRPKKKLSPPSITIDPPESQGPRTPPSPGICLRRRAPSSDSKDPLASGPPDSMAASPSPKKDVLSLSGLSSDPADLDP
Procedure, shortened: as §1

human α1H T-type channels, sequence (O95180 whole entry, the tested form may be a part): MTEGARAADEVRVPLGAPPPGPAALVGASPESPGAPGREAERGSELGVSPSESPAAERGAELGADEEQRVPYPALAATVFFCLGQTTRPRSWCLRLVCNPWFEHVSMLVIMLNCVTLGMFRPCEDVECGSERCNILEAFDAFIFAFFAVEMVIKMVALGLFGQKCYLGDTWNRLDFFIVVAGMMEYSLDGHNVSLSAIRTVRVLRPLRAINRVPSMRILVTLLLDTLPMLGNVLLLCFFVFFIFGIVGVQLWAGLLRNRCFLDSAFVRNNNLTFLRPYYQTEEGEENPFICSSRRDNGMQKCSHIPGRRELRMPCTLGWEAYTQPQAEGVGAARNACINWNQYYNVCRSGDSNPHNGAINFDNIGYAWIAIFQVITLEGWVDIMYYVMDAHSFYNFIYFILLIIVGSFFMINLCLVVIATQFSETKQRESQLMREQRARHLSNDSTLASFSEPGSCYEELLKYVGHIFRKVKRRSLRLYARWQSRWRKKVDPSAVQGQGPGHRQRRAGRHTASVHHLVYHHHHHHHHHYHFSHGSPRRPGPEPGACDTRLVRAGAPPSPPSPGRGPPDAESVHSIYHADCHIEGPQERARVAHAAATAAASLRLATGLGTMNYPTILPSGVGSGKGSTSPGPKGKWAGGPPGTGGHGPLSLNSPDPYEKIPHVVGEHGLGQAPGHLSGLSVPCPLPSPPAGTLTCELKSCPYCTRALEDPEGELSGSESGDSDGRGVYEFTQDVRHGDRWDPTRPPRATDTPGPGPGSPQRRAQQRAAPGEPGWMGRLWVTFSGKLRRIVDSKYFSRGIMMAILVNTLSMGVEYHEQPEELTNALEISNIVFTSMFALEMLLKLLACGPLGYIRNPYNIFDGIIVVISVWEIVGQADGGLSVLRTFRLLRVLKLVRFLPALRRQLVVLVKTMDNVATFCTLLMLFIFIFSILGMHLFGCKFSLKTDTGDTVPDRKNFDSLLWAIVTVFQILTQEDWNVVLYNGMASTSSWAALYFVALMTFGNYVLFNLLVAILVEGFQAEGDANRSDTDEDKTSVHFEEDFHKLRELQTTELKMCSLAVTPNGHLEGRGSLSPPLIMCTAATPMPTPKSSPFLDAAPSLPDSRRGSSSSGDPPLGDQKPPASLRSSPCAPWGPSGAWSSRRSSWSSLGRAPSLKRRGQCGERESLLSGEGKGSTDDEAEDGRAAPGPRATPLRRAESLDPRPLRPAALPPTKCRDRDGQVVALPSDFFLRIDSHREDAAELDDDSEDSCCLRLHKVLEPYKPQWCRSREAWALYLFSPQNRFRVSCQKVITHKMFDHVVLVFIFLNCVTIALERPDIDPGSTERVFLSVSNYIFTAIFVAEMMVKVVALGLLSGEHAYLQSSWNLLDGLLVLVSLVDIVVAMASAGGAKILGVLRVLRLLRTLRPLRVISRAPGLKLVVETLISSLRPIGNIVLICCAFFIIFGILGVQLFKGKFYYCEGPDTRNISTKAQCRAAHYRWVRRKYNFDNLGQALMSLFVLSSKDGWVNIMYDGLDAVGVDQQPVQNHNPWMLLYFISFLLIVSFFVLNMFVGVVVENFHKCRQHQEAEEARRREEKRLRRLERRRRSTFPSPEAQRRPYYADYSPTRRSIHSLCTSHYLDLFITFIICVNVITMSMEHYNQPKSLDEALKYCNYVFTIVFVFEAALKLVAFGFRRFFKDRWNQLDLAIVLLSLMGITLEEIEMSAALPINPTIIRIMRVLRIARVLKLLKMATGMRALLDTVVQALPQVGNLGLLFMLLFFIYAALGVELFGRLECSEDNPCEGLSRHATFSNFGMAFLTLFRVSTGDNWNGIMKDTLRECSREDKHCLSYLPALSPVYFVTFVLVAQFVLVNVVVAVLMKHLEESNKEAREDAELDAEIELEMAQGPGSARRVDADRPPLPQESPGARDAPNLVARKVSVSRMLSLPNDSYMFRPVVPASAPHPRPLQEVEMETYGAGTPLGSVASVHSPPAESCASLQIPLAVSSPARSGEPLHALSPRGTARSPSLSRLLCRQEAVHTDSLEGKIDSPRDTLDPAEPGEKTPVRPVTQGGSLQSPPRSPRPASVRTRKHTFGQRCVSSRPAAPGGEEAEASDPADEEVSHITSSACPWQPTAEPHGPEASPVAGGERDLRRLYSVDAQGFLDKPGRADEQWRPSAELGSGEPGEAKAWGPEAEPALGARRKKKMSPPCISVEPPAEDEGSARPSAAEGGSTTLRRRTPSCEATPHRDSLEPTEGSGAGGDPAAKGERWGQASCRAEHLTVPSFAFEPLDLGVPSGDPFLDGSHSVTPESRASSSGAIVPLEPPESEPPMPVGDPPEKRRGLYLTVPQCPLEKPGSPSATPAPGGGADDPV

SMILES | IC50 [1] [nM] | IC50 [2] [nM] | IC50 [3] [nM]
Cn1nc(C(F)(F)F)cc1C(=O)NC[C@H]1CC[C@@H](S(=O)(=O)c2cccc(C(F)(F)F)c2)CC1 [Compound 32, 1-methyl-3-(trifluoromethyl)-N-(((1S,4S)-4-(3-(trifluoromethyl)phenylsulfonyl)cyclohexyl)methyl)-1H-pyrazole-5-carboxamide] | 2690 | 440 | 500
O=C(CNC[C@H]1CC[C@@H](S(=O)(=O)c2cccc(C(F)(F)F)c2)CC1)NC1CCCCC1 [Compound 36, N-cyclohexyl-2-(((1S,4S)-4-(3-(trifluoromethyl)phenylsulfonyl)cyclohexyl)methylamino)acetamide] | 5110 | 740 | 5250
O=C(CNC[C@H]1CC[C@@H](S(=O)(=O)c2cccc(C(F)(F)F)c2)CC1)NCC(F)(F)F [Compound 37, N-(2,2,2-trifluoroethyl)-2-(((1S,4S)-4-(3-(trifluoromethyl)phenylsulfonyl)cyclohexyl)methylamino)acetamide] | 3620 | 1310 | 9280
O=C(N[C@H]1CC[C@@H](S(=O)(=O)c2cccc(C(F)(F)F)c2)CC1)c1cc(C(F)(F)F)ccn1 [Compound 42, 4-(trifluoromethyl)-N-((1S,4S)-4-(3-(trifluoromethyl)phenylsulfonyl)cyclohexyl)picolinamide] | 2860 | 480 | 1510
O=C(N[C@H]1CC[C@@H](S(=O)(=O)c2cccc(C(F)(F)F)c2)CC1)c1cc(-c2ccc(F)cc2)n[nH]1 [Compound 46, 3-(4-fluorophenyl)-N-((1S,4S)-4-(3-(trifluoromethyl)phenylsulfonyl)cyclohexyl)-1H-pyrazole-5-carboxamide] | 910 | 1060 | 1250
O=C(CN[C@H]1CC[C@@H](S(=O)(=O)c2cccc(C(F)(F)F)c2)CC1)NCC(F)(F)F [Compound 48, N-(2,2,2-trifluoroethyl)-2-((1S,4S)-4-(3-(trifluoromethyl)phenylsulfonyl)cyclohexylamino)acetamide] | 2330 | 1650 | 1430
CC(C)(C)NC(=O)CN[C@H]1CC[C@@H](S(=O)(=O)c2cccc(C(F)(F)F)c2)CC1 [Compound 49, N-tert-butyl-2-((1S,4S)-4-(3-(trifluoromethyl)phenylsulfonyl)cyclohexylamino)acetamide] | > 10000 | 200 | > 10000
CN(C(=O)CN[C@H]1CC[C@@H](S(=O)(=O)c2cccc(C(F)(F)F)c2)CC1)C(C)(C)C [Compound 50, N-tert-butyl-N-methyl-2-((1S,4S)-4-(3-(trifluoromethyl)phenylsulfonyl)cyclohexylamino)acetamide] | > 10000 | 90 | > 10000
CC(C)NC(=O)CN[C@H]1CC[C@@H](S(=O)(=O)c2cccc(C(F)(F)F)c2)CC1 [Compound 52, N-isopropyl-2-((1S,4S)-4-(3-(trifluoromethyl)phenylsulfonyl)cyclohexylamino)acetamide] | 790 | 1540 | 860
Cc1cc(NC(=O)CN[C@H]2CC[C@@H](S(=O)(=O)c3cccc(C(F)(F)F)c3)CC2)on1 [Compound 54, N-(3-methylisoxazol-5-yl)-2-((1S,4S)-4-(3-(trifluoromethyl)phenylsulfonyl)cyclohexylamino)acetamide] | 7290 | 4630 | > 10000
O=C(CN[C@H]1CC[C@@H](S(=O)(=O)c2cccc(C(F)(F)F)c2)CC1)NC1CCCCC1 [Compound 56, N-cyclohexyl-2-((1S,4S)-4-(3-(trifluoromethyl)phenylsulfonyl)cyclohexylamino)acetamide] | 480 | 260 | 820
O=C(CN[C@H]1CC[C@@H](S(=O)(=O)c2cccc(C(F)(F)F)c2)CC1)Nc1ccccn1 [Compound 57, N-(pyridin-2-yl)-2-((1S,4S)-4-(3-(trifluoromethyl)phenylsulfonyl)cyclohexylamino)acetamide] | 1530 | 860 | 4940
O=C(N[C@H]1CC[C@H](S(=O)(=O)c2cccc(C(F)(F)F)c2)CC1)c1ccc(F)c(C(F)(F)F)c1 [Compound 58, 4-fluoro-3-(trifluoromethyl)-N-((1R,4R)-4-(3-(trifluoromethyl)phenylsulfonyl)cyclohexyl)benzamide] | 1480 | 800 | 1850
O=C(N[C@H]1CC[C@H](S(=O)(=O)c2cccc(C(F)(F)F)c2)CC1)c1cc(F)cc(Cl)c1 [Compound 60, 3-chloro-5-fluoro-N-((1R,4R)-4-(3-(trifluoromethyl)phenylsulfonyl)cyclohexyl)benzamide] | 3900 | 370 | 6440
O=C(N[C@H]1CC[C@H](S(=O)(=O)c2cccc(C(F)(F)F)c2)CC1)c1ccc(C(F)(F)F)cn1 [Compound 62, 5-(trifluoromethyl)-N-((1R,4R)-4-(3-(trifluoromethyl)phenylsulfonyl)cyclohexyl)picolinamide] | 550 | 3480 | 1080
O=C(N[C@H]1CC[C@H](S(=O)(=O)c2cccc(C(F)(F)F)c2)CC1)c1cc(F)cc(C(F)(F)F)c1 [Compound 65, 3-fluoro-5-(trifluoromethyl)-N-((1R,4R)-4-(3-(trifluoromethyl)phenylsulfonyl)cyclohexyl)benzamide] | > 10000 | 550 | > 10000
O=C(N[C@H]1CC[C@H](S(=O)(=O)c2cccc(C(F)(F)F)c2)CC1)C1(C(F)(F)F)CCC1 [Compound 66, 1-(trifluoromethyl)-N-((1R,4R)-4-(3-(trifluoromethyl)phenylsulfonyl)cyclohexyl)cyclobutanecarboxamide] | > 10000 | 8990 | > 10000
CC(C)(C)NC(=O)CN[C@H]1CC[C@H](S(=O)(=O)c2cccc(C(F)(F)F)c2)CC1 [Compound 69, N-tert-butyl-2-((1R,4R)-4-(3-(trifluoromethyl)phenylsulfonyl)cyclohexylamino)acetamide] | > 10000 | 1650 | > 10000
CN(C(=O)CN[C@H]1CC[C@H](S(=O)(=O)c2cccc(C(F)(F)F)c2)CC1)C(C)(C)C [Compound 70, N-tert-butyl-N-methyl-2-((1R,4R)-4-(3-(trifluoromethyl)phenylsulfonyl)cyclohexylamino)acetamide] | 2580 | 1220 | 8810
Cc1cc(NC(=O)CN[C@H]2CC[C@H](S(=O)(=O)c3cccc(C(F)(F)F)c3)CC2)on1 [Compound 74, N-(3-methylisoxazol-5-yl)-2-((1R,4R)-4-(3-(trifluoromethyl)phenylsulfonyl)cyclohexylamino)acetamide] | 1210 | 4950 | 1530
O=C(CN[C@H]1CC[C@H](S(=O)(=O)c2cccc(C(F)(F)F)c2)CC1)NC1CCCCC1 [Compound 76, N-cyclohexyl-2-((1R,4R)-4-(3-(trifluoromethyl)phenylsulfonyl)cyclohexylamino)acetamide] | 510 | 590 | 1030
O=C(N[C@H]1CC[C@](F)(S(=O)(=O)c2cccc(C(F)(F)F)c2)CC1)c1cc(C(F)(F)F)ccn1 [Compound 79, N-((1R,4R)-4-fluoro-4-(3-(trifluoromethyl)phenylsulfonyl)cyclohexyl)-4-(trifluoromethyl)picolinamide] | 440 | 630 | 1190
O=C(N[C@H]1CC[C@](F)(S(=O)(=O)c2cccc(C(F)(F)F)c2)CC1)c1nc2cc(C(F)(F)F)ccc2[nH]1 [Compound 80, N-((1R,4R)-4-fluoro-4-(3-(trifluoromethyl)phenylsulfonyl)cyclohexyl)-5-(trifluoromethyl)-1H-benzo[d]imidazole-2-carboxamide] | 460 | 4310 | 900
O=C(N[C@H]1CC[C@](F)(S(=O)(=O)c2cccc(C(F)(F)F)c2)CC1)c1cc(F)cc(Cl)c1 [Compound 81, 3-chloro-5-fluoro-N-((1R,4R)-4-fluoro-4-(3-(trifluoromethyl)phenylsulfonyl)cyclohexyl)benzamide] | 220 | 410 | 380
COc1cc(F)cc(C(=O)N[C@H]2CC[C@](F)(S(=O)(=O)c3cccc(C(F)(F)F)c3)CC2)c1 [Compound 82, 3-fluoro-N-((1R,4R)-4-fluoro-4-(3-(trifluoromethyl)phenylsulfonyl)cyclohexyl)-5-methoxybenzamide] | 1810 | 3000 | 7490
O=C(N[C@H]1CC[C@](F)(S(=O)(=O)c2cccc(C(F)(F)F)c2)CC1)c1ccc(F)c(C(F)(F)F)c1 [Compound 83, 4-fluoro-N-((1R,4R)-4-fluoro-4-(3-(trifluoromethyl)phenylsulfonyl)cyclohexyl)-3-(trifluoromethyl)benzamide] | 960 | 480 | 2850
O=C(N[C@H]1CC[C@@](F)(S(=O)(=O)c2cccc(C(F)(F)F)c2)CC1)c1cc(C(F)(F)F)ccn1 [Compound 84, N-((1S,4S)-4-fluoro-4-(3-(trifluoromethyl)phenylsulfonyl)cyclohexyl)-4-(trifluoromethyl)picolinamide] | 650 | 310 | 2870
